Data taken from US4374284A, “Antiulcer, antiinflammatory, and antiallergic agent comprising as the main ingredient olean-12-ene-3β, 30-diol which is devoid of side effects of glycyrrhetinic acid and a new process for preparation of olean-12-ene-3β, 30-diol” (Minophagen Pharmaceutical Company, priority 1980, dated 1983).

How the values were obtained:
[1] = higher dosages for a long period, clinical; cited from earlier work
[2] = biological target: T1, Δ^4 -5α-reductase for aldosterone in rat liver (Rattus norvegicus, UniProt P24008); assay: inhibitory action on Δ^4-5α-reductase for aldosterone; type: biochemical; details: for inhibition at 0.173 µM: pH 7.2, read-out: 5α-reductase (inhibition %)
T1 construct: The pellet was appropriately diluted with a solution of 0.25 M sucrose-1 mM EDTA to use as a 5α-reductase solution; from tissue; host or cells: rat liver, 105,000 g pellet
T1 sequence (P24008 1-259): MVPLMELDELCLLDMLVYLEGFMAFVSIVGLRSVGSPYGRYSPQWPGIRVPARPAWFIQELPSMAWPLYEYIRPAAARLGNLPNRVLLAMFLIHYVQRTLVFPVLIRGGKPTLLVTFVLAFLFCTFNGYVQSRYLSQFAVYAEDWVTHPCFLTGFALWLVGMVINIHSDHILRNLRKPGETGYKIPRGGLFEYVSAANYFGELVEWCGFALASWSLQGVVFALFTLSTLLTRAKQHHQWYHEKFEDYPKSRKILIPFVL
Procedure: (§1) In vitro experimental results regarding effects of glycyrrhetinic acid (II) and its modified compounds (III), (IV), and (I) on Δ^4 -5α and 5β-reductase for aldosterone in rat liver will be shown below.
(§2) Assay for activity of Δ^4 -5α and 5β-reductase
(§3) (1) Preparation of enzyme solutions
(§4) Rat livers were perfused with saline and excised to prepare a 25% or 50% homogenate with a solution of 0.25 M sucrose and 1 mM EDTA. The homogenate was spun at 10,000 g for 20 minutes to separate supernatant, which was centrifuged again at 105,000 g to obtain Δ^4 -5β-reductase as the supernatant. The pellet was appropriately diluted with a solution of 0.25 M sucrose-1 mM EDTA to use as a 5α-reductase solution.
(§5) (2) Conditions for incubation and assay
(§6) 1 Aldosterone . . . 0.173 μM/0.05 ml ethanol solution
(§7) 2 Glycyrrhetinic acid or its modified compounds . . . 0.173 μM/0.05 ml ethanol solution Control . . . 0.05 ml ethanol solution
(§8) 5α-reductase solution 0.1 ml
(§9) 5β-reductase solution 0.1 ml or 0.2 ml
(§10) 5 Phosphate buffer (0.1 M, pH 7.2) 1 ml
(§11) The components 1 , 2 , 3 , 4 , 5 , and 6 mentioned above were mixed to bring the total volume up to 2.5 ml. The mixture was incubated at 37° C. for 20 minutes. Before the incubation, however, 1 ml aliquot was removed from 2.5 ml of the mixture mentioned above and extracted with 5 ml of methylene dichloride. After the incubation, the remaining 1.5 ml was extracted with 5 ml of methylene dichloride. The optical density of the two methylene dichloride solutions prepared before and after the incubation was measured by a spectrophotometer (Hitachi) at 240 mμ. Inhibition % of Δ^4 -5α and 5β-reductase activity was calculated from the difference in the optical density.

[3] = biological target: T2, Δ^4 -5β-reductase for aldosterone in rat liver (Rattus norvegicus, UniProt P31210); assay: inhibitory action on Δ^4-5β-reductase for aldosterone; type: biochemical
T2 construct: centrifuged again at 105,000 g to obtain Δ^4 -5β-reductase as the supernatant; from tissue; host or cells: rat liver, 105,000 g supernatant (cytosol)
T2 sequence (P31210 1-326): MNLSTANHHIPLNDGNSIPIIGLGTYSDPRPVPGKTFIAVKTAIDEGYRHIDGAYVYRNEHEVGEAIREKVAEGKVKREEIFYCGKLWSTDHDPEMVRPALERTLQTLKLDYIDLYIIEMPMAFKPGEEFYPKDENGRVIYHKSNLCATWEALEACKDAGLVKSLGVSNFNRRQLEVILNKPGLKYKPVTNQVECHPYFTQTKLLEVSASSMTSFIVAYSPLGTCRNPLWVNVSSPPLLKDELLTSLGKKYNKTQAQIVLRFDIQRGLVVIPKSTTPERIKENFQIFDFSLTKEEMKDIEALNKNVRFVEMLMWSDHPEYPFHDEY
Procedure: as §1, §2, §3, §4, §5, §6, §7, §8, §9, §10, §11

stress-induced ulcer = assay: mice experiments on stress-induced ulcer (restraint plus water immersion); type: in vivo, male ddY mice; details: for inhibitory effect on stress-induced ulcer (in words): 200 mg/kg
Procedure: (a) Mice Experiments on stress-induced ulcer Experimental procedures:
Male ddY mice weighing about 20 g were made to fast for 18 hours. Water was given freely. Compounds to be tested were suspended in Tween 80 to prepare an aqueous suspension and administered orally. Immediately thereafter, the mice were subjected to restraint plus water immersion stress (25° C.) for 6 hours. Thereafter, the stomach was excised and fixed by formalin. The degree of ulcer was shown as a total of the length. The control group was given only the solvent.

aspirin-induced ulcer [4] = assay: rat experiment on aspirin-induced ulcer, pylorus ligated (experiment a); type: in vivo, male Wister rats; details: rat, in vivo
Procedure: (b) Rat experiment on aspirin-induced ulcer
(a) Experimental procedures:
Male Wister rats weighing about 220 g were made to fast for 24 hours. Water was given freely. The rats were laparotomized under anesthesia with ether. The stomach was drawn out and ligated at the pylorus. Immediately thereafter, 1% CMC suspension of aspirin was administered orally in a dose of 100 mg/kg/5 ml. Aqueous suspensions of compounds to be tested were prepared in the same manner as in the experiment (a) and administered intraduodenally at the same time. The wound was closed and the rats were set free. After 7 hours, the stomach was excised and ulcer was measured in the same manner as in the experiment (a).

[5] = system: ulcers induced by acetic acid; assay: experiments with rats on ulcers induced by acetic acid (chronic gastric ulcers); type: in vivo; set-up: ulcer value (major axis × minor axis): unit not given here; details: for ulcer value (major axis × minor axis): p.o., 14 days
Procedure: (c) Experiments with rats on ulcers induced by acetic acid
Chronic gastric ulcers were induced by penetrating 100% acetic acid serosally into gastric wall for 60 sec. using a small cup (6 mm in diameter, 5 mm in height).
From the next day, compounds to be tested were administered orally twice a day (morning and evening) for 14 days. Autopsies were carried out 15 days after the administrations.

[6] = system: writhing induced by acetic acid; assay: effect on writhing induced by acetic acid (analgesic action); type: in vivo, male ddY mice; details: for number of writhing: 200 mg/kg p.o., counted for 10 minutes, control 24.9 ± 1.6, ** p < 0.01
Procedure: (b) Effect on writhing induced by acetic acid (analgesic action)
The present compound olean-12-ene-3β, 30-diol (I) was administered orally to male ddY mice weighing 25-27 g. After 30 minutes, saline containing 0.7% acetic acid was administered intraperitoneally. The number of writhings of the mice was counted for 10 minutes from, 10 min. of the administration. Aspirin was used as the reference.

[7] = system: PCA reaction (type I allergy); assay: PCA test (type I allergy); type: in vivo, male Wister rats; details: serum 1/64, 200 mg/kg intraperitoneally; control 16.4 ± 2.8
Procedure: (a) PCA--Test (type I allergy)
Male Wister rats weighing […] were shaved at the abdomen. After 24 hours, 0.05 ml of serum diluted with saline (Blood samples were diluted to 1/32 and 1/64; The blood samples were collected from rats 3 weeks after administration of pertussis vaccine and egg albumin.) was injected intradermally at the abdomen. After 48 hours, compounds to be tested were administered intraperitoneally. Two hours thereafter, 0.5 ml./100 g of a solution of antigen and pigment (a solution of 0.4% egg albumin and 0.5% Pontamine sky blue) was administered. After 45 minutes, the rats were decapitated and bled, and the diameter of the pigment-leaking site under the skin was measured to obtain the area.

aspirin-induced ulcer [8] = assay: rat experiment on aspirin-induced ulcer, oral (experiment b); type: in vivo, male Wister rats; details: 200 mg/kg p.o., after 5 hours; control 0
Procedure: (b) Experimental procedures:
Male Wister rats weighing 120-140 g were made to fast for 24 hours, and compounds to be tested were administered orally. After 5 hours, the rats were killed by a blow. The stomach was excised and observed for the presence of ulcer.
The size of ulcer was measured by ulcer index (ulcer length×width mm^2).

[9] = system: rat paw edema induced with carrageenin; assay: test on rat paw edema induced with carrageenin (antiinflammatory); type: in vivo, male Wister rats; details: 200 mg/kg p.o., after three hours
Procedure: (a) Test on rat paw induced with carrageenin
To the plantar side of the hind paw of male Wister rats was administered subcutaneously 0.05 ml/rat of 10% saline solution of carrageenin. Edema after three hours was measured by the volume method and the rate of inhibition was assayed. Compounds were administered orally 30 minutes before administration of carrageenin. [formula]

[10] = summary in words, liver reductase

CC1(C)[C@@H](O[C@H]2O[C@H](C(=O)O)[C@@H](O)[C@H](O)[C@H]2O[C@@H]2O[C@H](C(=O)O)[C@@H](O)[C@H](O)[C@H]2O)CC[C@]2(C)[C@H]3C(=O)C=C4[C@@H]5C[C@@](C)(C(=O)O)CC[C@]5(C)CC[C@@]4(C)[C@]3(C)CC[C@@H]12 [Glycyrrhizin]
side effect (in words) [1]: pseudoaldosteronism such as hypertension, hypopotassemia, and edema

CC1(C)[C@@H](O)CC[C@]2(C)[C@H]3C(=O)C=C4[C@@H]5C[C@@](C)(C(=O)O)CC[C@]5(C)CC[C@@]4(C)[C@]3(C)CC[C@@H]12 [II, olean-12-ene-11-oxo-3β-ol-30-oic acid, reference compound]
effect upon Δ^4 -5α-5β-reductase (in words), 5α [2, 10]: strongly inhibited the activity of the reductase
inhibition at 0.173 µM (stock) ([3]; equimolar to aldosterone (0.173 μM), 37° C., 20 minutes, pH 7.2): 87.7 ± 2.2%
effect upon Δ^4 -5α-5β-reductase (in words), 5β [3, 10]: strongly inhibited the activity of the reductase
inhibitory effect on stress-induced ulcer (in words) (stress-induced ulcer): showed the inhibitory effect
inhibitory effect on aspirin-induced ulcer, experiment (a) (in words) (aspirin-induced ulcer [4]): scarcely showed the effect
ulcer value (major axis × minor axis) ([5]; Experiment 1, 200 mg/kg (half dose twice/day), control 12.0 ± 2.3): 10.4 ± 2.7
ulcer value (major axis × minor axis) ([5]; Experiment 1, 400 mg/kg (half dose twice/day), control 12.0 ± 2.3): 8.6 ± 2.2
ulcer value (major axis × minor axis) ([5]; Experiment 2, 200 mg/kg (half dose twice/day), control 8.9 ± 1.7): 11.5 ± 2.2
ulcer value (major axis × minor axis) ([5]; Experiment 2, 400 mg/kg (half dose twice/day), control 8.9 ± 1.7): 5.8 ± 1.0
ulcer value (major axis × minor axis) ([5]; Total, 200 mg/kg (half dose twice/day), control 10.4 ± 1.4): 10.9 ± 1.7
ulcer value (major axis × minor axis) ([5]; Total, 400 mg/kg (half dose twice/day), control 10.4 ± 1.4, * p < 0.05): 7.1 ± 1.2
inhibitory effect on acetic acid ulcer (in words) ([5]; dose of 400 mg): clearly showed inhibitory effects
number of writhing [6]: 15.2 ± 3.6
effect on writhing (in words) ([6]; increasing doses): significantly decrease the number of writhing
area [7]: 7.7 ± 6.5 mm^2

CC1(C)[C@@H](O)CC[C@]2(C)[C@H]3CC=C4[C@@H]5C[C@@](C)(C(=O)O)CC[C@]5(C)CC[C@@]4(C)[C@]3(C)CC[C@@H]12 [III, olean-12-ene-3β-ol-30-oic acid]
inhibition at 0.173 µM [2]: -0.5 ± 6.6%
inhibitory effect on stress-induced ulcer (in words) (stress-induced ulcer): showed the effect
ulcer index (stress-induced ulcer; 200 mg/kg p.o., 5th experiment, control 4.13 ± 0.53): 3.38 ± 0.79

CC1(C)[C@@H](O)CC[C@]2(C)[C@H]3C(=O)C=C4[C@@H]5C[C@@](C)(CO)CC[C@]5(C)CC[C@@]4(C)[C@]3(C)CC[C@@H]12 [IV, olean12-ene-11-oxo-3β, 30diol]
inhibition at 0.173 µM [2]: 26.5 ± 5.6%

CC(=O)Oc1ccccc1C(=O)O [aspirin, reference compound]
ulcer index (ulcer length×width) (aspirin-induced ulcer [8]): 7.11 ± 1.1 mm^2
edema % ([9]; control 71 ± 6): 17 ± 3%
inhibition at 200 mg/kg ([9]; Rattus norvegicus, po, 3 h, edema): 76.1%
number of writhing [6]: 0
